Values after ≈ are worked out from the molar mass of the structure shown.
System: HEp-2
Assay: Cytotoxicity against human Hep2 cells by MTT method
Format: functional, cell-based

Row | SMILES | IC50
1 | COC1(c2cc(O)ccc2O)C=C(CC/C=C(\C)CCC=C(C)C)C(=O)O1 (configuration not stated) [FORNICIN B] | 15 µg/mL (≈ 40.3 µM)
2 | CC(C)=CCC/C(C)=C/CCC(CC(=O)c1cc(O)ccc1O)C(=O)O (configuration not stated) [FORNICIN C] | 23 µg/mL (≈ 63.8 µM)

From ChEMBL document CHEMBL1158065, “Prenylated phenolics from Ganoderma fornicatum” (J Nat Prod, 2006)
